This is an account of results in patent US20220387408A1, “USE OF MAST CELL STABILIZER FOR THE TREATMENT OF HEART FAILURE WITH PRESERVED EJECTION FRACTION” (INSERM (INSTITUT NATIONAL DE LA SANTÉ ET DE LA RECHERCHE …, priority 2019, published 2022).

What all share (assay type): in vivo
In assay [1] the test system is Lepr^db/db female mice. Briefly: LV end diastolic pressure measurement by pressure catheter in Lepr^db/db mice. To be noted: 2 month old Lepr^db/db female mice. The procedure: Lepr^db mice (BKS.Cg-Dock7m/+ Lepr^db/+J) were obtained from Charles River laboratories and bred together to obtain Lepr^db/db and control Lepr^db/+ mice. To prevent mast cell degranulation, mice were treated with 50 mg/kg/day cromolyn sodium (Abcam) via intra-peritoneal injections for 28 days. Untreated mice received 0.9% NaCl daily intra-peritoneal injections. […] LV diastolic pressure measurement was assessed using pressure—volume conductance catheter technique. Briefly, mice will be anesthetized with Isoflurane. A Scisense pressure catheter (Transonic) will be inserted into the LV through the common carotid artery. Pressure will be recorded using […] LabChart software. End diastolic pressure, dP/dt minimum and maximum, Tau and heart rate were automatically calculated by a curve fit through end-systolic and end-diastolic points on the pressure plot.

Assay [2] has as its system Lepr^db/db female mice. Briefly: Echocardiography (ejection fraction, LV wall thickness) in Lepr^db/db mice. To be noted: data not shown. The source says: Lepr^db mice (BKS.Cg-Dock7m/+ Lepr^db/+J) were obtained from Charles River laboratories and bred together to obtain Lepr^db/db and control Lepr^db/+ mice.
[…] Untreated mice received 0.9% NaCl daily intra-peritoneal injections.
Left-ventricular ejection fraction and LV dimension will be measured on a high-resolution echocardiographic system equipped with a 30-MHz mechanical transducer (VEVO 2100, VisualSonics Inc.) as previously described 13,14. Mice were anchored to a warming platform in a supine position, limbs were taped to the echocardiograph electrodes, and chests were shaved and cleaned with a chemical hair remover to minimize ultrasound attenuation. UNI′GEL ECG (Asept Inmed), from which all air bubbles had been expelled, was applied to the thorax to optimize the visibility of the cardiac chambers. Ejection fractions were evaluated by planimetry as recommended (Schiller et al. 1989). Two-dimensional, parasternal long-axis and short-axis views were acquired, and the endocardial area of each frame was calculated by tracing the endocardial limits in the long-axis view, then the minimal and maximal areas were used to determine the left-ventricular end-systolic (ESV) and end-diastolic (EDV) volumes, respectively. The system software uses a formula based on a cylindrical-hemiellipsoid model (volume=8·area^2/3π/length) 15. The left-ventricular ejection fraction was derived from the following formula: (EDV−ESV)/EDV*100. The cardiac wall thickness (Left ventricular posterior wall (LVPW), Inter-ventricular septum (IVS) and left ventricular internal diameter (LVID) were calculated by tracing wall limits in both the long and short axis views.

Assay [3] has as its system Lepr^db/db female mice. The assay can be described thus: Immuno-histological assessment of the heart (capillaries, albumin, CD45+ leucocytes, mast cells, cardiomyocyte size) in Lepr^db/db mice. How it is done:
Lepr^db mice (BKS.Cg-Dock7m/+ Lepr^db/+J) were obtained from Charles River laboratories and bred together to obtain Lepr^db/db and control Lepr^db/+ mice. To prevent mast cell degranulation, mice were treated with 50 mg/kg/day cromolyn sodium (Abcam) via intra-peritoneal injections for 28 days. Untreated mice received 0.9% NaCl daily intra-peritoneal injections. […] Prior to staining, heart were stopped in diastole using KCl, perfused and then fixed in 10% formalin for 4 hours, paraffin embedded and cut into 7 μm thick sections. Alternatively, heart were fresh frozen in OCT, then cut into 7 μm thick sections. ECs were identified using rat anti-CD31 antibodies (Histonova, cat #DIA-310). Albumin was stained using sheep anti-albumin antibodies (Abcam, Cat #ab8940). Pan-leucocytes were identified using rat anti-mouse CD45 antibodies (BD Pharmingen Inc, Cat #550539). For immunofluorescence analyzes, primary antibodies were resolved with Alexa Fluor®-conjugated secondary polyclonal antibodies (Invitrogen, Cat #[NT]-10037) and nuclei were counterstained with DAPI (1/5000). Negative controls using secondary antibodies only were done to check for antibody specificity. Capillary density (CD31+ vessels) was quantified in 4 pictures taken under ×260 magnification in areas where cardiomyocytes were oriented transversally. To assess the mean capillary diameter, the diameter of 10 capillary randomly chosen in each picture was measured via Image J. Inflammatory cell density (CD45+) was quantified in 8 pictures randomly taken under ×260 magnification. All pictures and quantifications (done using ImageJ/Fiji v2.0.0-rc-59 software (National Institute of Health, USA)) were performed by a blinded investigator. More precisely, all samples were assigned a random number prior to animal sacrifice, data collection and analysis. At the end of the experiment, the genotype/treatment for each animal was unveiled to allow data comparison and experimental conclusion.

Assay [4] has as its system Lepr^db/db female mice. Briefly: Heart weight in Lepr^db/db mice. The following applies: 50 mg/kg/day cromolyn sodium for 28 days; data not shown. The procedure:
To prevent mast cell degranulation, mice were treated with 50 mg/kg/day cromolyn sodium (Abcam) via intra-peritoneal injections for 28 days. Untreated mice received 0.9% NaCl daily intra-peritoneal injections.

Setting [5] is: 50 mg/kg/day cromolyn sodium for 28 days.

“Also recorded” adds a separate entry of the source.

In the case of `O=C(O)COCCN1CCN(C(c2ccccc2)c2ccc(Cl)cc2)CC1` (centres unmarked) [cetirizine], the “End diastolic pressure (EDP)” value in the assay on Lepr^db/db female mice [1] (4 mg/kg/day cetirizine orally (drinking water) for 28 days vs vehicle, FIG. 1B) is recorded as “significantly decreased”. Besides, the Ejection fraction result in the assay with Lepr^db/db female mice [2] (4 mg/kg/day cetirizine orally for 28 days) is “not modulated”.

In the case of `O=C(O)c1cc(=O)c2c(OCC(O)COc3cccc4oc(C(=O)O)cc(=O)c34)cccc2o1` [cromolyn sodium], the “End diastolic pressure (EDP)” value with Lepr^db/db female mice [1] (50 mg/kg/day cromolyn sodium intra-peritoneal for 28 days vs vehicle, FIG. 1A) is recorded as “significantly decreased; also recorded: prevents increased EDP”; in the assay on Lepr^db/db female mice [1] (50 mg/kg/day cromolyn sodium intra-peritoneal for 28 days vs vehicle, FIG. 1A, listed as Cromolyn Sodium), “prevents the occurrence of diastolic dysfunction”; in the assay on Lepr^db/db female mice [1] (50 mg/kg/day cromolyn sodium intra-peritoneal for 28 days vs vehicle, FIG. 1A, listed as Cromolyn sodium), “significantly reduced”. For the same compound, the Ejection fraction result with Lepr^db/db female mice [2] (setting [5]) is listed as “not modulated”. Further, the “LV posterior wall thickness” value in the assay with Lepr^db/db female mice [2] (setting [5]) is “did neither modify”. Also, the “Cardiac microvessel density (CD31+ vessels/mm^2)” value in the assay on Lepr^db/db female mice [3] (50 mg/kg/day cromolyn sodium for 28 days vs vehicle, FIG. 2A) is recorded as “did not modify”. Further, the “Mean cardiac capillary diameter” value in the assay with Lepr^db/db female mice [3] (50 mg/kg/day cromolyn sodium for 28 days vs vehicle, FIG. 2B) is “did reduce”. Moreover, the “Capillary permeability (albumin extravasation, albumin+ surface area)” value in the assay on Lepr^db/db female mice [3] (50 mg/kg/day cromolyn sodium for 28 days vs vehicle, FIG. 2C) is “decreased”. Besides, the “CD45+ leucocyte recruitment (CD45+ cells/mm^2)” value in the assay on Lepr^db/db female mice [3] (50 mg/kg/day cromolyn sodium for 28 days vs vehicle, FIG. 2D) is given as “decreases; also recorded: significantly decreased”. Besides, the “Percentage of degranulating mast cells in the heart” value in the assay on Lepr^db/db female mice [3] (50 mg/kg/day cromolyn sodium for 28 days vs vehicle, data not shown) was “did decrease”. In addition, the Mean cardiomyocyte size entry in the assay with Lepr^db/db female mice [3] (50 mg/kg/day cromolyn sodium for 28 days, data not shown) is recorded as “did neither modify”. In the assay on Lepr^db/db female mice [4], the Heart weight entry was “did neither modify”.
